Assay results: US6066642A, “Dihydropyridine-, pyridine-, benzopyran-4-one- and triazoloquinazoline derivative, their preparation and their use as adenosine receptor antagonists” (priority 1998, dated 2000)

How the values were obtained:
[1] = system: bak protein in U-937 cells; assay: expression of apoptosis-inducing protein bak by immunofluorescence, U-937 cells; assay type: cell-based; conditions: 24 hours
Method: (§1) Cells were fixed as following steps: 10 min with 1% formalin in PBS, 5 min with […] methanol and 2 min with ice cold acetone, then permebilized with 0.1% Nonidet P-40 for 20 min. After the preparation, the specimens were incubated step by step: 10% goat serum in PBS for 20 min, mouse monoclonal anti-bak antibody (5 μg/ml PBS-BSA) for 60 min, Rhodamine (TRITC)-conjugated AffiniPure Goat Anti-mouse IgG (H+L) in PBS-BSA for 60 min. The specimens were washed 3-5 times with PBS after every step. The glass slides were stored at 4° C. in the dark.
(§2) The mechanism of the apoptosis observed in response to either A3 agonists was investigated.

Female Mongolian gerbils = assay: bilateral carotid occlusion (stroke) in gerbils, survival and intact neurons; assay type: in vivo, Mongolian gerbil; conditions: for survival rate after ischemia: 100 μg/kg 15 min after occlusion; for intact neurons: 100 μg/kg
Method: Control gerbils were injected with saline. The survival of the animals was followed as a function of time after ischemia.
The number of intact neurons was also counted.

U-937 cells [2] = assay: in situ end-labeling of fragmented nuclear DNA (TUNEL), U-937 cells; assay type: cell-based
Method: (§3) Cells were fixed by immersing slides in 4% methanol-free formaldehyde in PBS at pH 7.4, 4° C., for 25 min. Fixed cells were permeabilized in 0.2% Triton® X-100 in PBS at 4° C. for 5 min. After preincubation with […] Promega equilibration buffer for 10 min at room temperature, the cells were covered with 50 μl TdT incubation buffer and a coverslip and maintained at 37° C. for 60 min inside the dark humidified chamber to protect from dry and direct light. In order to stop the reaction, the coverslip was removed and the slides were immersed in 2×SSC for 15 min at room temperature. The cells were restained by propidium iodide 1 μg/ml in PBS for 15 min. After every step, the cells were rinsed 2-3 times with fresh PBS for 5 min each. Finally, the glass slides were sealed with nail polish. The slides were stored at 4° C. in the dark.
(§4) The evidence that DNA strand breaks, characteristic of apoptosis, are induced by the A3 antagonists was obtained using in situ end-labelingin-situ of fragmented nuclear DNA by terminal deoxynucleotidyl transferase (TUNEL method, Cooke, H., Trends in Biotech., 10, 23 (1992)), which incorporates a fluorescent label at the 3'-ends. […] In the control cultures and in those treated with 10 nM Cl-IB-MECA alone, spontaneous apoptosis occured in only 5-7% of the cells (Table 17). […] The reversal of antagonist-induced apoptosis by the agonist is similar to that observed for the growth curves, except that both agonist and antagonist were applied at lower concentrations.

HL-60 cells [3] = assay: live cell counting with trypan blue (cell death/proliferation), HL-60 cells; assay type: cell-based; conditions: antagonist 0.5 μM plus 0.01 or 1.0 μM Cl-IB-MECA
Method: (§5) The HL-60 cells were maintained in RPMI 1640 supplmented with 10% fetal calf serum, 100 units/ml penicillin, […] streptomycin and 2 mM L-glutamine. The cells were split every third day, and 2 days before each experiment cultures were diluted to 2×10^5 cells/ml. For analysis of DNA content, aliquots of 2 ml were placed into 12-well flat-bottomed plates (Costar, Cambridge, Mass., U.S.A.) containing 2~6 μl test-compound solutions at defined concentrations or 6 μl DMSO (diluting medium). Live cell counting was carried out using 0.1% trypan blue.
(§6) In the latter assay, cell death was studied in HL-60 cells (FIGS. 11A-B) and in U-937 cells (FIGS. 11C-D) over a time course of 9 days. Cells in culture receiving no drug treatment proliferated geometrically until nearly the end of the experiment.

U-937 cells [4] = assay: live cell counting with trypan blue (cell death/proliferation), U-937 cells; assay type: cell-based; conditions: antagonist 0.5 μM plus 0.01 or 1.0 μM Cl-IB-MECA
Method: as §5, §6

A2a receptors = biological target: T1, A2a receptors (Rattus norvegicus, UniProt P30543); assay: radioligand binding, displacement of specific [3H]CGS 21680 binding in rat striatal membranes; conditions: Table 11; 10^-4 M; read-out: displacement of specific binding rA2A
T1 construct: Displacement of specific [^3 H]; from tissue; host or cells: rat striatal membranes
Method: ^b Displacement of specific [^3 H]
or as a percentage of specific binding displaced at 100 μM.

rabbit lung = assay: bronchoconstriction / dynamic compliance (Cdyn) in allergic rabbits; assay type: in vivo, New Zealand white rabbit; conditions: antagonist 10^-5 M, 2 minute aerosol, co-administered with agonist
Method: New Zealand white pasteurella free rabbit litter mates were exposed to A3 adenosine agonist APNEA, IB-MECA, or Cl-IB-MECA and the percent change in dynamic compliance (Cdyn) was measured as a function of the adenosine dose using known procedures. […] Allergy was induced in the rabbits using dust mites.
The antagonist was administered at a constant dose of 10^-5 M through a 2 minute aerosilization, followed by a 15 minute wait before the measurement of dynamic compliance.

HL-60 cells [5] = assay: in situ end-labeling of fragmented nuclear DNA (TUNEL), HL-60 cells; assay type: cell-based
Method: as §3, §4

[6] = system: bak protein in HL-60 cells; assay: expression of apoptosis-inducing protein bak by immunofluorescence, HL-60 cells; assay type: cell-based; conditions: 24 hours
Method: as §1, §2

[7] = Table 17, antagonist 50 nM plus Cl-IB-MECA 10 nM, 48 hour
[8] = Table 17, antagonist 50 nM, 48 hour

T1 sequence (P30543 whole entry): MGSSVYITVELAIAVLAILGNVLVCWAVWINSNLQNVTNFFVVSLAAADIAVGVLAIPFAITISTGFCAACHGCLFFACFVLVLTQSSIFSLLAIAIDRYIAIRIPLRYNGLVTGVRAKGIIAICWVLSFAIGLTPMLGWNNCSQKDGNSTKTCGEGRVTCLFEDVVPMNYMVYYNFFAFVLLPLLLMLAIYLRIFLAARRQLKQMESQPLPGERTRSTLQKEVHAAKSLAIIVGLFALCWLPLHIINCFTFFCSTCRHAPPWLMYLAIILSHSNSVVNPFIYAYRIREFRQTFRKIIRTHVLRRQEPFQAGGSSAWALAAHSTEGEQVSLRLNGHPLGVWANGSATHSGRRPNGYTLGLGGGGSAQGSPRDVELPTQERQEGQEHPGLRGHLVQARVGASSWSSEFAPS

CCOC(=O)C1=C(C)NC(c2ccccc2)=C(C(=O)OCc2ccccc2)C1C#Cc1ccccc1 (stereo not shown) [Compound 101]
bak labeling, U-937 [1]: present
survival rate after ischemia (Female Mongolian gerbils; after 7 days): 90%
survival rate after ischemia (Female Mongolian gerbils; after 90 days): 80%
intact neurons (Female Mongolian gerbils; after 7 days): 75%
intact neurons (Female Mongolian gerbils; after 90 days): 90%
fluorescent labeling of apoptotic cells, U-937 (U-937 cells [2]; 50 nM, 24 h, approximately): 30-40%
Percentage of apoptotic cells, U937, + Cl-IB-MECA (U-937 cells [2]; [7]): 10.4 Percentage
Percentage of apoptotic cells, U937 (U-937 cells [2]; [8]): 27.3 Percentage
growth curve with A3 antagonist plus Cl-IB-MECA, HL-60 (HL-60 cells [3]): the growth curves were nearly coincident with control curves
growth curve with A3 antagonist plus Cl-IB-MECA, U-937 (U-937 cells [4]): the growth curves were nearly coincident with control curves
inhibition at 100 µM (A2a receptors): < 10%
percent change in dynamic compliance (Cdyn) (rabbit lung): much reduced
fluorescent labeling of apoptotic cells, HL-60 (HL-60 cells [5]; 50 nM, 24 h, approximately): 30-40%
Percentage of apoptotic cells, HL-60, + Cl-IB-MECA (HL-60 cells [5]; [7]): 11.6 Percentage
Percentage of apoptotic cells, HL-60 (HL-60 cells [5]; [8]): 39.7 Percentage
bak labeling, HL-60 [6]: present
